Source: US8053415B2, “Compounds having RD targeting motifs” (Washington University in St. Louis, priority 2005, dated 2011)
Where a SMILES comes first, the peptide text is derived from it.

How the values were obtained:
[1] = tested on: A549 cells; test: Cellular internalization and blocking studies by fluorescence microscopy (Example 1); conditions: 37° C.; for translocation into the nucleus: A549 cells
Protocol: Cells were grown on LabTek microscope slides, as described above. The medium was removed and cells were incubated at 4° C. or 37° C. in PBS containing 1 μM of one of the peptide conjugates for 30 min. […] The cells were further incubated at 37° C. for 4 h and visualized with a Zeiss LSM510 system using a 633 laser and an LP650 filter.
For antibody blocking studies, cells were preincubated for 30 min at room temperature with 10 μg/ml function-specific monoclonal antibodies anti-αv or anti-β3 integrin subunits (Molecular Probes; Eugene Oreg.) before addition of 1 μM of a cypate-peptide conjugate. For nuclear staining, 0.1 μM TOPO-1 (Molecular Probes) was mixed with mounting medium and applied to the cells. All cells were visualized on an Olympus FV1000 microscope equipped with the appropriate bandwidth filters for cypate conjugates (or cypate-3 conjugates) and TROPO-1.

[2] = tested on: HEK cells; test: Cell uptake and internalization (Example 3); type: cell-based, human; conditions: within an hour of incubation
Protocol: (§1) The ABI-positive cells were incubated with cypate or cypate-peptide conjugates at 37° C. for different time points. A549 cells were grown as detailed above. The human glioblastoma cell line, U87, and the human embryonic kidney cell line, HEK, were purchased from ATTC. U87 and HEK cells were maintained in minimum essential medium (MEM) with 2 mM L-glutamine and Earle's BSS adjusted to contain 1.5 g/L sodium bicarbonate, 0.1 mM nonessential amino acids, and 1.0 mM sodium pyruvate, with 10% fetal calf serum, 100 units/mL penicillin, and 100 units/mL streptomycin. Cells were grown on Lab-Tek slides. The medium was replaced and cells were incubated for various times up to 4 h at 37° C. in the presence of 1 μM of the dye conjugated peptides. For fluorescence microscopy, cells were visualized with an Olympus BX61W1 microscope using 775/50 excitation, 845/55 emission. For subcellular localization studies, 25 nM mitotracker green or 50 nM lysotracker red from Molecular Probes (Eugene, Oreg.) was added during the last 15 min or 60 min of incubation, respectively. […] Relative fluorescence was determined for five different areas of each experimental condition using the Slidebook software, and the results were averaged. The average relative fluorescence for each condition was normalized to cells treated with Cyp-GRD peptide.

[3] = tested on: U87 cells; test: Cell uptake and internalization (Example 3); type: cell-based, human; conditions: within an hour of incubation
Protocol: as §1

[4] = tested on: A549 cells; test: CyQuant cytotoxicity and proliferation assay; type: cell-based, human; conditions: 48 hours
Protocol: Cells were seeded at 2.5×10^4 cells/well and grown in 96 well plates in the presence of 0−1.5×10^−5 M cypate conjugated peptides for 24 or 48 hours. Cell proliferation was measured using the CyQuant proliferation assay from Molecular Probes (Eugene, Oreg.) per the manufacturer's protocol. Briefly, after incubation the microplate was inverted to remove the media and frozen at −70° C. overnight. The microplate was thawed at room temperature and 200 μL of the CyQuant GR dye/cell-lysis buffer was added to each well. […]
Because the Cyquant assay is based on the adherence of a dye to nucleic acids, the assay is a measure of both proliferative and cytotoxic effects.

[5] = tested on: αv, β3, αvβ3 and αIIBβ3 integrins in A549 cells; test: Immunostaining of integrins in treated and untreated cells; type: cell-based, human; conditions: relative to PBS-treated cells
Protocol: To confirm the receptors that mediate internalization of cypate-GRD in A549 cells, the levels of αv, αIIb, β3, αvβ3, and αIIBβ3 in treated and untreated cells were assessed by immunostaining. Cells were grown on Lab-Tek slides and fixed in 3% paraformaldehyde in PBS for 30 min. After washing three times for 5 min each in PBS, the cells were blocked to mask nonspecific binding sites with PBS containing 1% normal goat serum (blocking solution) for 1 h. Primary antibodies of mouse anti-human αv or β3 integrin antibodies (Chemicon International, Temecula, Calif.) or antihuman αIIBβ3 (GeneTex, Inc., South Bend, Ind.) diluted 1:500 (v/v) in blocking solution were added to each well and incubated overnight at 4° C. After washing three times for 10 min each in PBS, cells were incubated for 1 h with diluted biotinylated-anti-mouse IgG antibody in blocking solution. After washing, antigens were detected with avidin-horseradish peroxidase conjugate and diamino benzidine (Vector Laboratories, Burlingame, Calif.). Slides were counterstained with Mayers Hematoxylin, and the cover slips were mounted for microscopic examination.

[6] = Absorption and emission spectral properties in 20% aqueous DMSO; type: physicochemical
Protocol: The spectral properties of cypate and the cypate-peptide conjugates were determined in 20% aqueous DMSO, which solubilizes all the compounds. […] Absorbance measurements were performed with a Beckman Coulter DU 640 spectrophotometer. The fluorescence spectra were recorded on Fluorolog-3 fluorometer (HORIBA Jobin Yvon Inc., Edison, N.J.). To prepare the stock solutions, a high precision analytical balance was used to weigh >2 mg of each compound, which was dissolved in DMSO. The DMSO solutions were then diluted with water to obtain a final solution of 20% aqueous DMSO. An aliquot (known volume) of the solution was transferred to a cuvette with 1 μL precision micropipettes and diluted with 20% aqueous DMSO solvent mixture to give a working solution that absorbs at <1.0 absorbance unit. Aliquots of the working solution were diluted with 20% aqueous DMSO and used to determine the molar absorptivity of each compound. For fluorescence measurements, probe solutions with 0.1 absorbance units were used to minimize inner filter effects.
Previous studies have shown that this solvent mixture boosts fluorescence intensity and is well tolerated by rodents. Additionally, the dyes and their peptide conjugates are soluble in this solvent mixture, providing a common medium for spectral measurements.
Absorbance spectra were measured on a Beckman Coulter DU 640 UV-Visible spectrophotometer. Fluorescence spectra were recorded on a HORIBA Jobin Yvon Fluorolog-3 fluorometer. Stock solutions (1.0 mM) of the conjugates were prepared by dissolving each sample in 80% aqueous DMSO. UV-Vis and fluorescence measurements were carried out by adding 5.0 μL of the stock solutions via a micropipette into 3 mL of 20% aqueous DMSO in a quartz cuvette.

[7] = target: integrin αvβ3 protein (purified ABI) (Homo sapiens, UniProt P05106+P06756); test: Receptor binding assay with 125I-echistatin (Example 3); conditions: Table 4, 125I-echistatin tracer
Protocol: A 96-well filtration plate was blocked with 0.1% polyethylenimine blocking solution by incubation overnight at 4° C. ^125I-Echistatin (50 nmol/L) was added to the binding buffer (50 mM Tris-HCl, pH 7.4, 100 mM NaCl, 2 mM CaCl2, 1 mM MgCl2, 1 mM MnCl2, 0.1% BSA) with integrin αvβ3 protein (50 ng/well in 96-well filtration plate) and ligands. The concentration range of ligand was between 0.01 and 100 μM. The mixture was incubated for 2 h by shaking at room temperature. Each well was washed three times with 0.25 mL of ice-cold binding buffer and dried. The filters were removed using a punch apparatus and counted in a gamma counter.

[8] = tested on: A549 cell membranes (ABI); test: ABI binding assay using A549 cell membranes; design: species or system human; conditions: compared with purified ABI
Excerpt: [SEQ ID NO:1] as the target receptor, tracer, and reference standard, respectively. Echistatin is a polypeptide that binds purified ABI specifically and irreversibly and the radiolabeled analogue is used widely in ABI binding assays. […] Because of the rearrangement of the RGD peptide sequence, the low binding of cypate-GRD peptide to ABI was expected.

integrin αvβ3 protein (purified ABI), sequence (P06756 31-889 limits assumed): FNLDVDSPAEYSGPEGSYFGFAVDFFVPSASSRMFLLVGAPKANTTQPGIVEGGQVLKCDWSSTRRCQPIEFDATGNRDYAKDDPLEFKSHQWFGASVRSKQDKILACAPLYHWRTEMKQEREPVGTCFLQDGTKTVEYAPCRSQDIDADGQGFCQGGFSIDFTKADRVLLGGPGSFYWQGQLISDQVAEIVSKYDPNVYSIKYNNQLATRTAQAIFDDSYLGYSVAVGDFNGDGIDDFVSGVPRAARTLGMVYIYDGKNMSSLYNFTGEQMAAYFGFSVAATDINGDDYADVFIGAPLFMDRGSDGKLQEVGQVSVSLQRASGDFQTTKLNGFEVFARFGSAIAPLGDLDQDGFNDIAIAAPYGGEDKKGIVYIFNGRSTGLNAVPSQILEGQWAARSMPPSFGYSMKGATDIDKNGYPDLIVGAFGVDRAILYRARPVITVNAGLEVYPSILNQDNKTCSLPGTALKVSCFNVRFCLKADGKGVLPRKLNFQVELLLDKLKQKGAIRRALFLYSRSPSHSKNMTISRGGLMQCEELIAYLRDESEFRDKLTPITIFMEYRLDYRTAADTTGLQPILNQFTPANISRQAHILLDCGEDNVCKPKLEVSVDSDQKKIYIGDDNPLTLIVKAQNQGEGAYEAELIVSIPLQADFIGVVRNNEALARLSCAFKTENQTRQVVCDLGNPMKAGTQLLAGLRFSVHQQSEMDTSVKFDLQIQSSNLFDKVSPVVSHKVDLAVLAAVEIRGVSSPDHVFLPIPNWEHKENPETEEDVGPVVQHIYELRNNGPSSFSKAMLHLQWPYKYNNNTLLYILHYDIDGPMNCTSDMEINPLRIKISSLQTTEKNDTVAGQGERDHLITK
integrin αvβ3 protein (purified ABI), sequence (P06756 891-1048 partner limits assumed): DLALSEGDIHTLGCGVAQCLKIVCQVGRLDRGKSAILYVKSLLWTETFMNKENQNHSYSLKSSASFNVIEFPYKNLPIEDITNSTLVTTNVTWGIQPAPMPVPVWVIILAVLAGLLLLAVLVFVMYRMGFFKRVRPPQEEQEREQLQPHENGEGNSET
integrin αvβ3 protein (purified ABI), sequence (P05106 27-788): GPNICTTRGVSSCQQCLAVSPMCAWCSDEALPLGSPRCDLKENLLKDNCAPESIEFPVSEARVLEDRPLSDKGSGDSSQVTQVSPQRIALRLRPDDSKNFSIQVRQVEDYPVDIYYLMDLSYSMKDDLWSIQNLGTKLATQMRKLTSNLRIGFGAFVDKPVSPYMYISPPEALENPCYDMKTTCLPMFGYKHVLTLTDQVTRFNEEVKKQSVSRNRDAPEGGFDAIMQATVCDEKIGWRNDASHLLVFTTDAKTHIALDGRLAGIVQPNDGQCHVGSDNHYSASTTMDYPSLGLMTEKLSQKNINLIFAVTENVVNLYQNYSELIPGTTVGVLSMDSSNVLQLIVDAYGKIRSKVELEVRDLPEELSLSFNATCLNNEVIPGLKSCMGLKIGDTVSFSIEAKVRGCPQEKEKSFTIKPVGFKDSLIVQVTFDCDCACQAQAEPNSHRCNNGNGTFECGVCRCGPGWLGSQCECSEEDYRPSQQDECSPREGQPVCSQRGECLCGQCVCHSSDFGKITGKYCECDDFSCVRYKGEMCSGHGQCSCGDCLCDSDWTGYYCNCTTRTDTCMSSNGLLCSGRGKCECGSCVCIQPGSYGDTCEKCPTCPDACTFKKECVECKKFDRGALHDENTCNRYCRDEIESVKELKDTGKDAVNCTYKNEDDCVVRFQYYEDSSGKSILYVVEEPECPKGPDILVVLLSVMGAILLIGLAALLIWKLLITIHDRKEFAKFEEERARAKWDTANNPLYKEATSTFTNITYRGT

CC1(C)C(/C=C/C=C/C=C/C=C2/N(CCC(=O)NCC(=O)N[C@@H](CCCNC(=N)N)C(=O)N[C@@H](CC(=O)O)C(=O)N[C@@H](CO)C(=O)N3CCC[C@H]3C(=O)N[C@@H](CCCCN)C(=O)O)c3ccc4ccccc4c3C2(C)C)=[N+](CCC(=O)O)c2ccc3ccccc3c21 [Cyp-GRD, Cypate-GRDSPK] (HELM PEPTIDE1{[CC1(C)C(/C=C/C=C/C=C/C=C2/N(CCC(=O)[*:2])c3ccc4ccccc4c3C2(C)C)=[N+](CCC(=O)O)c2ccc3ccccc3c21].G.R.D.S.P.K}$$$$V2.0)
internalization in A549 cells ([1]; 1 μM): internalized
translocation into the nucleus [1]: did not translocate to the nucleus
translocation into the nucleus ([1]; listed as cypate-GRD): not localized in the nucleus
internalization in HEK cells [2]: internalization
internalization in U87 cells [3]: internalization
cytotoxicity (CyQuant), longer treatment [4]: not
staining of A549 cells with anti-αv, anti-β3, anti-αvβ3 and anti-αIIBβ3 antibodies after preincubation [5]: reduced staining
^abεmax [6]: 237,680 cm^−1Mol^−1
^abλmax [6]: 789 nm
^emλmax [6]: 813 nm
IC50 [7]: > 100 µM
ABI binding affinity using A549 cell membranes [8]: No improvement in the ABI binding affinity
